Like-named read-outs stand apart in the source and are kept apart here.
Experiments:
BRD2-BD1 [1] = target: T1, BRD2-BD1 (Homo sapiens (Human), UniProt P25440); test: competitive TR-FRET assay, BET-BD with acetylated peptide ligand; type: binding; conditions: read-out: EC50 (μM) BRD2(1)
Description: (§1) Inhibitor potency was determined using a competitive TR-FRET assay as detailed herein, measuring interaction of the respective BET-BD with an acetylated peptide ligand (Table 2).

BRD2-BD2 [2] = target: T2, BRD2-BD2 (Homo sapiens (Human), UniProt P25440); test: as above; type: binding; conditions: for EC50: read-out: EC50 (μM) BRD2(2)
T2 sequence (P25440 344-453): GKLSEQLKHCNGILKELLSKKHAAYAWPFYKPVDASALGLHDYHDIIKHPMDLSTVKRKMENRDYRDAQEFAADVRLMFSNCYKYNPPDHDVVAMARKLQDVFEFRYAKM
Description: as §1

BRD3-BD1 = BRD3-BD1 (Homo sapiens (Human), UniProt Q15059); test: as above; type: binding
Chain of BRD3-BD1 (Q15059 34-140): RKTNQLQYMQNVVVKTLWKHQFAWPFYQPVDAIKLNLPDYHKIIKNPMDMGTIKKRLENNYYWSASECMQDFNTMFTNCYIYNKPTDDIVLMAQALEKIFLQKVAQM
Description: as §1

BRD4-BD1 = BRD4-BD1 (Homo sapiens (Human), UniProt O60885); test: as above; type: binding; conditions: Table 4; read-out: EC50 (μM) BRD4(1)
Description: as §1

BRD4-BD2 = BRD4-BD2 (Homo sapiens (Human), UniProt O60885); test: as above; type: binding
Description: as §1

BRDT = BRDT (Homo sapiens, UniProt Q58F21); test: as above; type: binding
Description: as §1

BRD2-BD1 [3] = target: T1, BRD2-BD1; test: surface plasmon resonance analysis of binding; conditions: SPR, BRD2(1) (printed MRD2(1))
Description: (§2) a. Surface Plasmon Resonance (Biacore) Analysis of Binding to Brd2-BD1 and Brd2-BD2
(§3) SPR experiments were conducted at 15° C. using a SensiQ Pioneer optical biosensor (SensiQ Technologies). Poly-His tagged BRD2 constructs were immobilized on polycarboxylate-coated gold chips preimmobilized with nitrilotriacetic acid (His-Cap chips; SensiQ Technologies) by capture-coupling, a hybrid method of capture and amine coupling chemistry (Ref. A). The His-Cap chip was preconditioned and charged with Ni^2+ in equilibration buffer (10 mM HEPES pH 7.4, 150 mM NaCl, 50 μM EDTA, 0.005% Tween20) at a flow rate of 10 μL/min. The chip was washed with three 60 s injections of regeneration buffer (10 mM HEPES pH 8.3, 150 mM NaCl, 350 mM EDTA, 0.05% Tween20) and one 60 s injection of equilibration buffer and was charged with a 60 s injection of 500 mM NiCl2 in equilibration buffer, which added ˜55 RU of Ni^2+ per channel. […]
(§4) A series of buffer-only (blank) injections was included throughout the experiment to account for instrumental noise. The data were processed, double-referenced, solvent corrected and analyzed using the software package Qdat (version 2.5.3.5, SensiQ Technologies) (Ref B). The kinetic rate constants were determined by globally fitting the data to a 1:1 interaction model. Equilibrium dissociation constants (KD) were calculated as the quotient kd/ka.

BRD2-BD2 [4] = target: T2, BRD2-BD2; test: surface plasmon resonance analysis of binding; conditions: SPR, BRD2(2)
Description: as §2, §3, §4

HDMB03 cells = test: cell viability, CellTiter-Glo; type: cell-based, human; conditions: Homo sapiens, read-out: EC50 (μM) HDMB03
How it was run: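 Medulloblastoma cells grown as neurospheres in supplemented neurobasal medium and treated for 7 days; viability read by CellTiter-Glo luminescence. Log10-transformed signal normalized to negative and positive controls; median percent inhibition of triplicates fitted with a four-parameter log-logistic model.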

[5] = system: c-Myc expression in HDMB03 cells; test: c-Myc expression inhibition, high content microscopy (HCM); type: cell-based, human; conditions: Homo sapiens, read-out: EC50 (μM) Myc-inhibition
BRD3(1) = BRD3(1) (Homo sapiens (Human), UniProt Q15059); test: BROMOscan KD determination; type: binding; conditions: Table 10
Chain of BRD3(1) (Q15059 34-140): as above
Description: (§5) DiscoverX® can screen compounds against all ˜42 bromodomains (a service called BROMOscan) and perform follow-up KD determination. This service is considered the industrial standard for bromodomain inhibitor comparisons.

BRD3(2) = BRD3(2) (Homo sapiens (Human), UniProt Q15059); test: BROMOscan KD determination; type: binding
Chain of BRD3(2) (Q15059 306-415): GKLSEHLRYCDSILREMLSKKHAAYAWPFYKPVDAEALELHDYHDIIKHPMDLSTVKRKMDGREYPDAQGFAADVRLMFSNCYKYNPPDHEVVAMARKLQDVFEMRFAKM
Description: as §5

BRD4(1) = BRD4(1) (Homo sapiens (Human), UniProt O60885); test: BROMOscan KD determination; type: binding; conditions: Table 10
Description: as §5

BRD4(2) = BRD4(2) (Homo sapiens (Human), UniProt O60885); test: BROMOscan KD determination; type: binding
Description: as §5

T1 sequence (P25440 74-180): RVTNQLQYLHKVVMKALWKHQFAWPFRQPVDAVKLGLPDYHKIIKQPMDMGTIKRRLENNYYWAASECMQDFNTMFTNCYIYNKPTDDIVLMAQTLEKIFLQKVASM

COC(=O)c1ccc(N[C@@H]2C[C@H](C)N(C(C)=O)c3ccc(-c4cccc(NC(C)=O)c4)cc32)cc1 [compound 4]
EC50 (BRD2-BD1 [1]; Table 4): 0.43 µM | EC50 (BRD2-BD1 [1]; Table 6): 1.56 µM | EC50 (BRD2-BD1 [1]; Table 8): 1.56 µM | [2(1)/2(2)] (BRD2-BD2 [2]; Table 4, ratio of EC50): 19.5 | EC50 (BRD2-BD2 [2]; Table 4): 0.022 µM | [2(1)/2(2)] (BRD2-BD2 [2]; Table 6, ratio of EC50): 14.2 | EC50 (BRD2-BD2 [2]; Table 6): 0.11 µM | EC50 (BRD2-BD2 [2]; Table 8): 0.11 µM | EC50 (BRD3-BD1; Table 4, read-out: BRD3(1)): 1.1 µM | EC50 (BRD3-BD1; Table 6, read-out: EC50 (μM) BRD3(1)): 1.1 µM | EC50 (BRD3-BD1; Table 8, read-out: BRD3(1)): 1.1 µM | EC50 (BRD4-BD1): 0.43 µM | 4(1)/4(2) (BRD4-BD2; Table 4, ratio of EC50): 20.5 | EC50 (BRD4-BD2; Table 4, read-out: EC50 (μM) BRD4(2)): 0.021 µM | EC50 (BRDT; Table 4, read-out: BRDT EC50): 4000 nM | EC50 (BRDT; Table 6, head names no target, BRDT by comparison with Table 4, read-out: EC50): 4000 nM | EC50 (BRDT; Table 8, head names no target, BRDT by comparison with Table 4, read-out: EC50): 4000 nM | Kd (BRD2-BD1 [3]): 132 nM | Kd (BRD2-BD2 [4]): 13 nM | EC50 (HDMB03 cells; HD-MB03, Table 5): 0.31 µM | EC50 (HDMB03 cells; HD-MB03, Table 7): 0.75 µM | EC50 (HDMB03 cells; HD-MB03, Table 9, cancer cell proliferation inhibition): 0.75 µM | EC50 ([5]; HD-MB03, Table 5): 0.03 µM | EC50 ([5]; HD-MB03, Table 7): 1.3 µM | EC50 ([5]; HD-MB03, Table 9, c-Myc expression inhibition in HDMB03 cells): 1.3 µM | Kd (BRD3(1)): 0.72 nM | 3(1)/3(2) (BRD3(2); BROMOscan KD ratio): 1.8 | Kd (BRD3(2); BROMOscan, Table 10): 0.39 nM | Kd (BRD4(1)): 27 nM | 4(1)/4(2) (BRD4(2); BROMOscan KD ratio): 64.3 | Kd (BRD4(2); BROMOscan, Table 10): 0.42 nM
